Experimental data from the supplement of paper PMC11061612.

How the values were obtained:
Test in all cases: combination Emax (second highest fraction inhibited in the dose matrix, 72 h); higher = more inhibition; extreme values may be limits of the assay
[1] = system: CGTH-W-1 (Thyroid Gland Carcinoma)
Method in brief: (§1)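 Bliss excess equals the observed combination effect minus the expected value EA + EB − EA·EB, where EA and EB are the effects of each agent alone. Combination Emax is the second-highest inhibition within the matrix. Inhibition was scaled from CellTiter-Glo 2.0 luminescence, with 0 set by vehicle wells and 1 by blank wells, after 72 hours of two-drug dosing of cells plated in 1536-well plates.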

[2] = system: NCI-H2087 (Lung Adenocarcinoma)
Method in brief: as §1

[3] = system: DU-4475 (Breast Carcinoma)
Method in brief: as §1

WM1552C (Melanoma) = system: WM1552C (Melanoma)
Method in brief: as §1

[4] = system: UACC-812 (Breast Carcinoma)
Method in brief: as §1

[5] = system: KYSE-140 (Esophageal Squamous Cell Carcinoma)
Method in brief: as §1

[6] = system: LS-411N (Colorectal Carcinoma)
Method in brief: as §1

HCC70 (Breast Carcinoma) = system: HCC70 (Breast Carcinoma)
Method in brief: as §1

[7] = system: JVM-2 (B-Cell Non-Hodgkin's Lymphoma)
Method in brief: as §1

[8] = system: LU-165 (Small Cell Lung Carcinoma)
Method in brief: as §1

EB2 (Burkitt's Lymphoma) = system: EB2 (Burkitt's Lymphoma)
Method in brief: as §1

[9] = system: GA-10 (Burkitt's Lymphoma)
Method in brief: as §1

[10] = system: A2780 (Ovarian Carcinoma)
Method in brief: as §1

[11] = system: JHU-022 (Oral Cavity Carcinoma)
Method in brief: as §1

[12] = system: HCC1395 (Breast Carcinoma)
Method in brief: as §1

[13] = system: KYSE-220 (Esophageal Squamous Cell Carcinoma)
Method in brief: as §1

[14] = system: GCT (Other Solid Carcinomas)
Method in brief: as §1

769-P (Kidney Carcinoma) = system: 769-P (Kidney Carcinoma)
Method in brief: as §1

[15] = system: CAL-27 (Oral Cavity Carcinoma)
Method in brief: as §1

[16] = system: NCI-H716 (Colorectal Carcinoma)
Method in brief: as §1

Compound	combination Emax [1]	combination Emax [2]	combination Emax [3]	combination Emax (WM1552C (Melanoma))	combination Emax [4]	combination Emax [5]	combination Emax [6]	combination Emax (HCC70 (Breast Carcinoma))	combination Emax [7]	combination Emax [8]	combination Emax (EB2 (Burkitt's Lymphoma))	combination Emax [9]	combination Emax [10]	combination Emax [11]	combination Emax [12]	combination Emax [13]	combination Emax [14]	combination Emax (769-P (Kidney Carcinoma))	combination Emax [15]	combination Emax [16]
COc1cccc(OCCCN)c1-c1cc(Nc2cnc(C#N)cn2)n[nH]1 [Prexasertib] + O=C(c1cc(Cc2n[nH]c(=O)c3ccccc23)ccc1F)N1CCN(C(=O)C2CC2)CC1 [Olaparib] (first compound max 1 µM, 7x7, partner max 10 µM)	0.714	0.784	0.98	0.711	0.558	0.826	0.498	0.939	0.946	0.424	0.916	0.987	0.71	0.637	0.88	0.947	0.633	0.751	0.78	0.616
Cn1cnc2c(F)c(Nc3ccc(Br)cc3Cl)c(C(=O)NOCCO)cc21 [Selumetinib] + CCN(CCO)CCCOc1ccc2c(Nc3cc(CC(=O)Nc4cccc(F)c4)[nH]n3)ncnc2c1 [AZD2811] (first compound max 10 µM, 7x7, partner max 1 µM)	0.125	0.445	1	0.439	0.166	0.294	0.786	0.603	0.633	0.158	0.182	0.7	0.702	0.54	0.212	0.52	0.384	0.356	0.611	0.428
Cn1cnc2c(F)c(Nc3ccc(Br)cc3Cl)c(C(=O)NOCCO)cc21 [Selumetinib] + C[C@@H]1COCCN1C2=NC(=NC(=C2)C3(CC3)[S@](=N)(=O)C)C4=C5C=CNC5=NC=C4 [AZD6738] (first compound max 10 µM, 7x7, partner max 10 µM)	0.162	0.661	1	0.59	0.319	0.786	0.808	0.778	0.825	0.304	0.755	0.977	0.829	0.567	0.571	0.753	0.373	0.888	0.63	0.577
COc1cccc2c1C(=O)c1c(O)c3c(c(O)c1C2=O)C[C@@](O)(C(=O)CO)C[C@@H]3O[C@H]1C[C@H](N)[C@H](O)[C@H](C)O1 [Doxorubicin] + Cc1cc2ncnn2cc1Nc1ncc2c(n1)n(C1CCOCC1)c(=O)n2C [AZD7648] (first compound max 1 µM, 7x7, partner max 10 µM)	0.749	0.655	1	0.793	0.296	0.442	0.508	0.488	0.983	0.337	0.979	0.963	0.934	0.858	0.401	0.979	0.625	0.706	0.741	0.305
CN(C)CCCOc1ccc(-c2ccc3ncc4c(c3c2)n(C2CCOCC2)c(=O)n4C)cn1 [AZD0156] + O=C(c1cc(Cc2n[nH]c(=O)c3ccccc23)ccc1F)N1CCN(C(=O)C2CC2)CC1 [Olaparib] (first compound max 3 µM, partner max 3 µM)	0.214	0.12	0.434	0.324	0.261	0.113	0.349	0.359	0.533	0.21	0.496	0.741	0.595	0.62	0.315	0.54	0.282	0.16	0.299	0.225
CN(C)CCCOc1ccc(-c2ccc3ncc4c(c3c2)n(C2CCOCC2)c(=O)n4C)cn1 [AZD0156] + CCN(CCO)CCCOc1ccc2c(Nc3cc(CC(=O)Nc4cccc(F)c4)[nH]n3)ncnc2c1 [AZD2811] (first compound max 1 µM, 7x7, partner max 1 µM)	0.196	0.0658	0.392	0.242	0.148	0.288	0.137	0.604	0.719	0.114	0.416	0.808	0.609	0.193	0.193	0.142	0.161	0.0806	0.546	0.45
CS(=O)(=O)CCNCc1ccc(-c2ccc3ncnc(Nc4ccc(OCc5cccc(F)c5)c(Cl)c4)c3c2)o1 [Lapatinib] + C[C@@H](Oc1cc(-c2cnn(C3CCNCC3)c2)cnc1N)c1c(Cl)ccc(F)c1Cl [Crizotinib] (first compound max 10 µM, 7x7, partner max 10 µM)	0.853	0.395	0.989	0.921	–	0.881	0.584	0.685	0.918	0.441	0.768	0.98	0.98	0.943	0.906	0.994	0.903	0.966	0.958	0.837
NC1(C(=O)N[C@@H](CCO)c2ccc(Cl)cc2)CCN(c2ncnc3[nH]ccc23)CC1 [Capivasertib] + CC(C)n1c(=O)n(C)c2cnc3cc(F)c(-c4ccc(OCCCN5CCCCC5)nc4)cc3c21 [AZD1390] (first compound max 10 µM, 7x7, partner max 0.3 µM)	0.357	0.206	0.331	0.305	–	0.732	0.434	0.707	0.707	0.464	0.61	0.74	0.643	0.413	0.383	0.49	0.6	0.34	0.321	0.45
NC1(C(=O)N[C@@H](CCO)c2ccc(Cl)cc2)CCN(c2ncnc3[nH]ccc23)CC1 [Capivasertib] + CC(=O)c1c(C)c2cnc(Nc3ccc(N4CCNCC4)cn3)nc2n(C2CCCC2)c1=O [Palbociclib] (first compound max 10 µM, 7x7, partner max 10 µM)	0.349	0.244	0.295	0.427	–	0.78	0.628	0.657	0.823	0.429	0.566	0.97	0.77	0.471	0.395	0.712	0.718	0.773	0.69	0.49
NC1(C(=O)N[C@@H](CCO)c2ccc(Cl)cc2)CCN(c2ncnc3[nH]ccc23)CC1 [Capivasertib] + CCN(CCO)CCCOc1ccc2c(Nc3cc(CC(=O)Nc4cccc(F)c4)[nH]n3)ncnc2c1 [AZD2811] (first compound max 10 µM, 7x7, partner max 1 µM)	0.354	0.256	0.679	0.447	–	0.829	0.557	0.745	0.755	0.47	0.653	0.918	0.812	0.446	0.455	0.623	0.636	0.422	0.646	0.457
NC1(C(=O)N[C@@H](CCO)c2ccc(Cl)cc2)CCN(c2ncnc3[nH]ccc23)CC1 [Capivasertib] + Cn1cnc2c(F)c(Nc3ccc(Br)cc3Cl)c(C(=O)NOCCO)cc21 [Selumetinib] (first compound max 10 µM, 7x7, partner max 10 µM)	0.47	0.539	1	0.638	–	0.873	0.786	0.908	0.737	0.444	0.628	0.77	0.828	0.576	0.425	0.763	0.753	0.426	0.815	0.783
NC1(C(=O)N[C@@H](CCO)c2ccc(Cl)cc2)CCN(c2ncnc3[nH]ccc23)CC1 [Capivasertib] + COc1nnc2ccc(N3CCC(c4ccc(OCCN5CCN(C)C(=O)[C@H]5C)cc4)CC3)nn12 [AZD5153] (first compound max 10 µM, 7x7, partner max 1 µM)	0.408	0.301	0.979	0.555	–	0.857	0.937	0.876	0.79	0.712	0.707	0.927	0.873	0.486	0.395	0.838	0.695	0.729	0.833	0.616
CC(=O)c1c(C)c2cnc(Nc3ccc(N4CCNCC4)cn3)nc2n(C2CCCC2)c1=O [Palbociclib] + CC1(C)CCC(CN2CCN(c3ccc(C(=O)NS(=O)(=O)c4ccc(NCC5CCOCC5)c([N+](=O)[O-])c4)c(Oc4cnc5[nH]ccc5c4)c3)CC2)=C(c2ccc(Cl)cc2)C1 [Venetoclax] (first compound max 10 µM, 7x7, partner max 1 µM)	0.122	0.0514	0.153	0.28	–	0.199	0.153	0.0684	0.762	0.115	0.448	0.95	0.721	0.105	0.0711	0.189	0.313	0.814	0.0994	0.475
